Test systems include UACC-257; SW-620; MDA-N; Hs-578T; K562; SK-MEL-28; COLO 205; TK-10; T47D; OVCAR-3; HCT-15; A498; A549; Malme-3M; SR; UACC-62; MCF7; LOX IMVI; SNB-19; HL-60.
What all share (assay): NCI tumour cell line growth inhibition, 48 h

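Briefly, cells in 96-well plates were exposed to five compound concentrations for 48 h, and endpoints were estimated by linear interpolation. The concentration for 50% growth inhibition is given as GI50.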 Active and inactive are the calls of the source. No stated cut-off is given here; in the data, active = GI50 up to about 1.1 µM and inactive = higher.

Results on eleven compounds are retold here after ChEMBL document CHEMBL1201862, “PubChem BioAssay data set” (2004).

Turning to `CN(C)CCNC1=Nc2ccccc2C(=S)N2CSCC12` (centres undefined), the GI50 in the experiment on UACC-257, in the experiment on SW-620, with MDA-N, in the experiment on Hs-578T, with K562 and with SK-MEL-28 was > 100 µM (inactive) in each case. For the same compound, the GI50 in the experiment with COLO 205 is > 100 µM (inactive); in the experiment on TK-10 it was > 100 µM (inactive); in the experiment with T47D, > 100 µM (inactive); with OVCAR-3, > 100 µM (inactive); in the experiment with HCT-15, above 100 µM; in the experiment on A498, > 100 µM (inactive). For the same compound, the GI50 in the experiment on A549, with Malme-3M, in the experiment with SR, in the experiment on UACC-62, in the experiment with MCF7 and with LOX IMVI was > 100 µM (inactive) throughout. The GI50 in the experiment on SNB-19 was > 100 µM (inactive).
Take `OCC(O)C(O)C(O)C(/C=N\Nc1ncnc2ccc(Br)cc12)=N/Nc1ncnc2ccc(Br)cc12` (centres undefined): the GI50 was 7.48 µM (inactive) in the experiment with UACC-257; 6.62 µM (inactive) in the experiment with SW-620; 15.1 µM (inactive) with MDA-N; > 100 µM (inactive) in the experiment with Hs-578T; 7.48 µM (inactive) in the experiment on K562; 45.9 µM (inactive) with SK-MEL-28. Moreover, the GI50 was 3.31 µM (inactive) in the experiment with COLO 205; 80.5 µM (inactive) in the experiment with TK-10; 3.2 µM (inactive) in the experiment with T47D; 2.72 µM (inactive) in the experiment on OVCAR-3; 50.5 µM (inactive) in the experiment on A498; 23.2 µM (inactive) with A549. For the same compound, the GI50 with Malme-3M was 3.53 µM (inactive); in the experiment with SR, 3.17 µM (inactive); in the experiment with MCF7, 34.4 µM (inactive); in the experiment on LOX IMVI it was 5.12 µM (inactive); in the experiment with HL-60, 3.15 µM (inactive); with SNB-19, 51.5 µM (inactive).
In the case of `O=c1[nH]c(Nc2ccc(Br)c(C(F)(F)F)c2)nc2[nH]cnc12`, the GI50 in the experiment with UACC-257 is 82 µM (inactive); in the experiment on SW-620, 57.9 µM (inactive); in the experiment on MDA-N it was 34.4 µM (inactive); in the experiment with Hs-578T it was 13.1 µM (inactive); in the experiment with SK-MEL-28, 36.6 µM (inactive); with COLO 205, 20.8 µM (inactive). For the same compound, the GI50 was 83.9 µM (inactive) in the experiment on TK-10; 32.7 µM (inactive) with T47D; 31.8 µM (inactive) in the experiment on OVCAR-3; 76 µM in the experiment with HCT-15; 33.4 µM (inactive) with A498; 72.1 µM (inactive) in the experiment with A549. Also, the GI50 in the experiment on Malme-3M is 38.8 µM (inactive); in the experiment with SR, 37.1 µM (inactive); in the experiment with UACC-62 it was 23.8 µM (inactive); with MCF7, 51.5 µM (inactive); in the experiment with LOX IMVI, 39.1 µM (inactive); with HL-60 it was 26 µM (inactive). In addition, the GI50 with SNB-19 is 39.6 µM (inactive).
Consider `COCCNc1cncc(C(N)=O)c1`, for which the GI50 in the experiment with UACC-257, in the experiment with SW-620, in the experiment with MDA-N, in the experiment with Hs-578T, in the experiment with K562 and in the experiment with SK-MEL-28 was > 100 µM (inactive) each time. The GI50 was > 100 µM (inactive) with COLO 205; > 100 µM (inactive) with TK-10; 65.6 µM (inactive) in the experiment with T47D; > 100 µM (inactive) with OVCAR-3; above 100 µM in the experiment on HCT-15; > 100 µM (inactive) in the experiment with A498. Also, the GI50 in the experiment with A549, with SR, in the experiment with UACC-62, in the experiment with MCF7, with HL-60 and with SNB-19 was > 100 µM (inactive) in each case.
Take `COC(=O)c1c2c(cc3c1CC1(Cc4cc5c(c(C)c4C1)CCC5)C3)CCC2` (centres undefined): the GI50 in the experiment on UACC-257, with SW-620, in the experiment with MDA-N, in the experiment on Hs-578T, with K562 and in the experiment with SK-MEL-28 was > 100 µM (inactive) in each case. The GI50 was > 100 µM (inactive) with TK-10; > 100 µM (inactive) with T47D; > 100 µM (inactive) in the experiment with OVCAR-3; above 100 µM in the experiment on HCT-15; > 100 µM (inactive) in the experiment on A498; > 100 µM (inactive) in the experiment on A549. Moreover, the GI50 in the experiment with Malme-3M, with SR, with MCF7, in the experiment with LOX IMVI, in the experiment on HL-60 and in the experiment on SNB-19 was > 100 µM (inactive) throughout.
With `Cc1ccc(C2=Nc3cccc4cccc(c34)N2)cc1`, the GI50 with UACC-257, in the experiment on SW-620, in the experiment on MDA-N, with Hs-578T, in the experiment with K562 and in the experiment on SK-MEL-28 was > 100 µM (inactive) each time. Moreover, the GI50 with COLO 205 was > 100 µM (inactive); in the experiment on TK-10 it was > 100 µM (inactive); in the experiment on T47D, > 100 µM (inactive); with OVCAR-3, > 100 µM (inactive); with HCT-15 it was above 100 µM; in the experiment on A549, > 100 µM (inactive). Besides, the GI50 in the experiment on Malme-3M, with SR, with UACC-62, in the experiment with MCF7, in the experiment on LOX IMVI and with HL-60 was > 100 µM (inactive) in each case. The GI50 in the experiment on SNB-19 was > 100 µM (inactive).
`CN(CC(=O)Nc1ccccc1C(=O)O)c1ccccc1`: the GI50 is > 100 µM (inactive) with UACC-257; 90.2 µM (inactive) in the experiment on SW-620; > 100 µM (inactive) with MDA-N; > 100 µM (inactive) with Hs-578T; > 100 µM (inactive) in the experiment with K562; > 100 µM (inactive) with SK-MEL-28. Further, the GI50 was > 100 µM (inactive) with TK-10; > 100 µM (inactive) in the experiment on T47D; > 100 µM (inactive) in the experiment on OVCAR-3; 67.1 µM in the experiment on HCT-15; > 100 µM (inactive) in the experiment with A498; > 100 µM (inactive) in the experiment with A549. Also, the GI50 with Malme-3M, in the experiment with SR, in the experiment on MCF7, in the experiment on LOX IMVI, with HL-60 and in the experiment on SNB-19 was > 100 µM (inactive) throughout.
Consider `O=C1C(Cl)=C(N2C(=O)CCCC2=O)C(=O)c2ccccc21`, for which the GI50 in the experiment on UACC-257 was 19.1 µM (inactive); with SW-620, 20.9 µM (inactive); in the experiment with MDA-N, 17.2 µM (inactive); in the experiment with Hs-578T, 31.2 µM (inactive); in the experiment with K562, 2.7 µM (inactive); in the experiment with SK-MEL-28 it was 13.9 µM (inactive). The GI50 in the experiment with COLO 205 is 6.37 µM (inactive); with TK-10 it was 17.5 µM (inactive); with T47D, 22.9 µM (inactive); in the experiment with OVCAR-3 it was 31.6 µM (inactive); in the experiment with HCT-15 it was 11.6 µM; in the experiment on A498, 16.8 µM (inactive). For the same compound, the GI50 was 22.1 µM (inactive) in the experiment on A549; 21.5 µM (inactive) in the experiment with SR; 19.3 µM (inactive) in the experiment on UACC-62; 16.8 µM (inactive) in the experiment with MCF7; 20.6 µM (inactive) in the experiment on LOX IMVI; 1.7 µM (inactive) with HL-60. Also, in the experiment on SNB-19, the GI50 is > 10 µM (inactive).
On to `C#C[C@]1(O)CC[C@H]2[C@@H]3CCC4=C/C(=N/NC(=O)c5cccc6cc7ccccc7nc56)CC[C@@H]4[C@H]3CC[C@@]21CC`, for which the GI50 in the experiment with UACC-257 was > 100 µM (inactive); in the experiment with SW-620, > 100 µM (inactive); with MDA-N it was 93.3 µM (inactive); in the experiment with Hs-578T it was 94 µM (inactive); with K562, > 100 µM (inactive); in the experiment on SK-MEL-28, > 100 µM (inactive). For the same compound, the GI50 with COLO 205 is 70.5 µM (inactive); with T47D, 21 µM (inactive); with OVCAR-3, 75.5 µM (inactive); with HCT-15 it was 56 µM; with A498 it was > 100 µM (inactive); in the experiment on A549 it was 47 µM (inactive). For the same compound, the GI50 in the experiment on SR was 38.5 µM (inactive); in the experiment on UACC-62, 95.5 µM (inactive); with MCF7, 38.4 µM (inactive); with LOX IMVI, 48.9 µM (inactive); in the experiment with HL-60, 48 µM (inactive); in the experiment on SNB-19 it was > 100 µM (inactive).
For the compound `Clc1ccc(-c2nc(-c3ccc(Cl)cc3)[s+]s2)cc1`, the GI50 with UACC-257 is 55.2 µM (inactive); in the experiment with SW-620 it was 55.8 µM (inactive); with MDA-N, > 100 µM (inactive); in the experiment on Hs-578T, 46.7 µM (inactive); with K562, 24.3 µM (inactive); in the experiment with SK-MEL-28, 59.7 µM (inactive). Also, the GI50 was > 100 µM (inactive) in the experiment with COLO 205; 24 µM (inactive) in the experiment with TK-10; > 100 µM (inactive) with T47D; 51.2 µM (inactive) in the experiment on OVCAR-3; 33.3 µM in the experiment with HCT-15; > 100 µM (inactive) with A498. Moreover, the GI50 is 39.9 µM (inactive) in the experiment on A549; 18.7 µM (inactive) in the experiment on Malme-3M; 28.4 µM (inactive) with SR; 52.2 µM (inactive) in the experiment with UACC-62; 37.3 µM (inactive) with MCF7; 33.1 µM (inactive) in the experiment with LOX IMVI. Moreover, the GI50 in the experiment on SNB-19 is 50.5 µM (inactive).
On to `O=C1c2ccccc2C(=O)N1CCSCC(CO)SCCN1C(=O)c2ccccc2C1=O` (centres undefined), for which the GI50 is > 100 µM (inactive) in the experiment on UACC-257; > 100 µM (inactive) in the experiment with SW-620; > 100 µM (inactive) in the experiment on MDA-N; > 100 µM (inactive) in the experiment with Hs-578T; 75.3 µM (inactive) in the experiment with K562; > 100 µM (inactive) with SK-MEL-28. Moreover, the GI50 is > 100 µM (inactive) in the experiment with COLO 205; > 100 µM (inactive) with TK-10; 86.9 µM (inactive) in the experiment on T47D; above 100 µM in the experiment on HCT-15; > 100 µM (inactive) in the experiment on A498; > 100 µM (inactive) in the experiment with A549. Further, the GI50 in the experiment with Malme-3M is > 100 µM (inactive); in the experiment with SR, > 100 µM (inactive); with UACC-62, 90.2 µM (inactive); in the experiment on MCF7, > 100 µM (inactive); in the experiment on LOX IMVI it was > 100 µM (inactive); in the experiment on HL-60, 9.98 µM (inactive). In addition, the GI50 with SNB-19 was > 100 µM (inactive).
